Measurements from PubChem BioAssay AID1745844 (Carcinogenic Potency Database (CPDB), 2022).
Calls of active or inactive are those of the source. The rule behind the calls is not given here.

System: rodent lifetime carcinogenesis bioassay, tumor incidence TD50
Assay: chronic cancer bioassays in animals – CPDB, compiled studies (AID 1745844)

CNc1ncnc2nc[nH]c12
inactive: carcinogen call (mouse, strain Swiss CD-1, females, in drinking water, site: liver, lesion: hepatocellular tumor, dosed 26 weeks, study length 104 weeks) negative | carcinogen call (mouse, strain Swiss CD-1, females, in drinking water, site: lung, lesion: one or several types, types not named, dosed 26 weeks, study length 104 weeks) negative | carcinogen call (mouse, strain Swiss CD-1, males, in drinking water, site: liver, lesion: hepatocellular tumor, dosed 26 weeks, study length 106 weeks) negative | carcinogen call (mouse, strain Swiss CD-1, males, in drinking water, site: lung, lesion: one or several types, types not named, dosed 26 weeks, study length 106 weeks) negative

S=C=NCCCCCCc1ccccc1
inactive: carcinogen call (rat, strain Fischer 344, males, in feed, site: colon, lesion: one or several types, types not named, dosed 55 weeks, study length 55 weeks) negative | carcinogen call (rat, strain Fischer 344, males, in feed, site: liver, lesion: hepatocellular adenoma, dosed 112 weeks, study length 112 weeks) negative | carcinogen call (rat, strain Fischer 344, males, in feed, site: liver, lesion: hepatocellular carcinoma, dosed 112 weeks, study length 112 weeks) negative | carcinogen call (rat, strain Fischer 344, males, in feed, site: pancreas, exocrine, lesion: acinar-cell adenoma, dosed 112 weeks, study length 112 weeks) negative | carcinogen call (rat, strain Fischer 344, males, in feed, site: pancreatic islets, lesion: islet-cell adenoma, dosed 112 weeks, study length 112 weeks) negative

CC(C)Oc1ccc(Nc2ccccc2)cc1
inactive: TD50 (mouse, strain B6AKF1, females, oral dosing, site: any site (literature study), lesion: several types, types named in the paper, dosed 76 weeks, study length 76 weeks) 1200 mg/kg/day | TD50 (mouse, strain B6AKF1, females, oral dosing, site: liver, lesion: angioma, dosed 76 weeks, study length 76 weeks) 2650 mg/kg/day | carcinogen call (mouse, strain B6AKF1, females, oral dosing, site: lung, lesion: adenoma, dosed 76 weeks, study length 76 weeks) negative | TD50 (mouse, strain B6AKF1, males, oral dosing, site: any site (literature study), lesion: several types, types named in the paper, dosed 76 weeks, study length 76 weeks) 985 mg/kg/day | TD50 (mouse, strain B6AKF1, males, oral dosing, site: liver, lesion: hepatoma, dosed 76 weeks, study length 76 weeks) 1130 mg/kg/day | TD50 (mouse, strain B6AKF1, males, oral dosing, site: lung, lesion: adenoma, dosed 76 weeks, study length 76 weeks) 2180 mg/kg/day | TD50 (mouse, strain B6C3F1, females, oral dosing, site: any site (literature study), lesion: several types, types named in the paper, dosed 76 weeks, study length 76 weeks) 1290 mg/kg/day | TD50 (mouse, strain B6C3F1, females, oral dosing, site: liver, lesion: hepatoma, dosed 76 weeks, study length 76 weeks) 2650 mg/kg/day | carcinogen call (mouse, strain B6C3F1, females, oral dosing, site: lung, lesion: several types, types named in the paper, dosed 76 weeks, study length 76 weeks) negative | TD50 (mouse, strain B6C3F1, males, oral dosing, site: any site (literature study), lesion: several types, types named in the paper, dosed 76 weeks, study length 76 weeks) 300 mg/kg/day | TD50 (mouse, strain B6C3F1, males, oral dosing, site: liver, lesion: hepatoma, dosed 76 weeks, study length 76 weeks) 679 mg/kg/day | TD50 (mouse, strain B6C3F1, males, oral dosing, site: lung, lesion: adenoma, dosed 76 weeks, study length 76 weeks) 2180 mg/kg/day
